Structures are written as SMILES.

In the assay the target is T1, human metabotropic glutamate receptor 5 (hmGluR5) (Homo sapiens, UniProt P41594).
T1 construct: expressed in transfected cells
T1 sequence (P41594 21-1212): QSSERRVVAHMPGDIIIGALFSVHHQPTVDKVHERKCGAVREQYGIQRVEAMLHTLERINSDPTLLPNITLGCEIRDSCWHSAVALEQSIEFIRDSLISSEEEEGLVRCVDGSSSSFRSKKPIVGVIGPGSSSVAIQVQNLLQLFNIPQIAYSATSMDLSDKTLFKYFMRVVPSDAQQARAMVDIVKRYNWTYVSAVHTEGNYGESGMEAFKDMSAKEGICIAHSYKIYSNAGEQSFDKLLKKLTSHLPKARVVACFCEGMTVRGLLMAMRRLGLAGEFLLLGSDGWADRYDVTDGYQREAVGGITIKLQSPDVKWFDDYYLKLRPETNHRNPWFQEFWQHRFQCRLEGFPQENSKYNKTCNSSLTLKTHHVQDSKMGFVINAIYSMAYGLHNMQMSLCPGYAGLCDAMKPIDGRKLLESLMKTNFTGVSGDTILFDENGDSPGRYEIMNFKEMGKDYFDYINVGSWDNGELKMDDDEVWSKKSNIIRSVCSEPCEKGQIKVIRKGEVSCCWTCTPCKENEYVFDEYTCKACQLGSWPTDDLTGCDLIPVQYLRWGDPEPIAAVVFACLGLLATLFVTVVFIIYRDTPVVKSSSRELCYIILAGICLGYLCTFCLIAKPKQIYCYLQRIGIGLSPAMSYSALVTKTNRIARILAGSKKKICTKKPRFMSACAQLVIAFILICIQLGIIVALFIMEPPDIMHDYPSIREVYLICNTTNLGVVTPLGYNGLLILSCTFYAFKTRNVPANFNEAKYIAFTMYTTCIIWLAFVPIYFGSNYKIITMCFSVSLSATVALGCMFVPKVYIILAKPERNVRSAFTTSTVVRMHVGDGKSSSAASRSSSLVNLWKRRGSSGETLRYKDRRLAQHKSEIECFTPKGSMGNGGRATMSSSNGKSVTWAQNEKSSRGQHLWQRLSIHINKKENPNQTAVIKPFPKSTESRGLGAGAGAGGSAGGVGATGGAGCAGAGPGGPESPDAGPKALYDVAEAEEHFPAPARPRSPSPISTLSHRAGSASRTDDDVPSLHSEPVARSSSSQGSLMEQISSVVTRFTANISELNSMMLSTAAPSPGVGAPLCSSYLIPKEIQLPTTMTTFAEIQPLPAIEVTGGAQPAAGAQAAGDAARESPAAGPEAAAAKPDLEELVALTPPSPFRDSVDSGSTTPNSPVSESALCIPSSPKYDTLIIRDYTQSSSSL
Nature of the assay: Calcium mobilization (FLIPR) assay for negative allosteric modulation, EC80 glutamate, hmGluR5 in HEK 293. Type of assay: cell-based. Particulars: HEK293; hmGluR5, inhibition of EC80 glutamate response; read-out: FLIPR maximum inhibition. The protocol:
The cDNA for rat metabotropic glutamate receptor 5 (rmGluR5) and the cDNA for human metabotropic glutamate receptor 5 (hmGluR5) were generous gifts from S. Nakanishi (Kyoto University, Kyoto, Japan). The rmGluR5 or hmGluR5 was stably expressed in a HEK 293 cell line and grown in Dulbecco's Modified Eagle Medium (DMEM) (Invitrogen, Carlsbad, Calif.) with supplements (10% bovine calf serum, 4 mM glutamine, 100 units/mL penicillin, 100 μg/mL streptomycin and 0.75 mM G1418) at 37° C., 5% CO2. Twenty-four hours prior to assay, cells were seeded into 384-well black wall microtiter plates coated with poly-D-lysine. Just prior to assay, media was aspirated and cells dye-loaded (25 μL/well) with 3 μM Fluo-4/0.01% pluronic acid in assay buffer (Hank's Balanced Saline Solution (HBSS)): 150 mM NaCl, 5 mM KCl, 1 mM CaCl2, 1 mM MgCl2, plus 20 mM N-2-Hydroxyethylpiperazine-N′-2-ethanesulfonic acid (HEPES), pH 7.4, 0.1% bovine serum albumin (BSA) and 2.5 mM probenicid) for 1 hour in 5% CO2 at 37° C. After excess dye was discarded, cells were washed in assay buffer and layered with a final volume equal to 30 μL/well. Basal fluorescence is monitored in a fluorometric imaging plate reader (FLIPR) (Molecular Devices, Sunnyvale, Calif.) with an excitation wavelength of 488 nm and an emission range of 500 to 560 nm. Laser excitation energy was adjusted so that basal fluorescence readings were approximately 10,000 relative fluorescent units. Cells were stimulated with an EC20 or an EC80 concentration of glutamate in the presence of a compound to be tested, both diluted in assay buffer, and relative fluorescent units were measured at defined intervals (exposure=0.6 sec) over a 3 min period at room temperature. Basal readings derived from negative controls were subtracted from all samples. Maximum change in fluorescence was calculated for each well. Concentration-response curves derived from the maximum change in fluorescence were analyzed by nonlinear regression (Hill equation). A negative modulator can be identified from these concentration-response curves if a compound produces a concentration dependent inhibition of the EC80 glutamate response.
(In general: A change in cytosolic calcium serves as a functional read-out for many receptors and channels.)
For the compound `Cc1nccc(N2CC[C@]3(CCC[C@H](NC(=O)c4cccc(Cl)c4)C3)C2=O)n1` (racemic) [Example 58], the Emax fell in the range of 73 to 95%.
For the compound `Cc1nccc(C(=O)N[C@H]2CCC[C@]3(CCN(c4cc(F)cc(F)c4)C3=O)C2)n1` (racemic) [Example 76, cis 2-Methyl-pyrimidine-4-carboxylic acid [2-(3,5-difluoro-phenyl)-1-oxo-2-aza-spiro[4.5]dec-7-yl]-amide], the Emax is 73 to 95%.
As for `Cc1cc(C(=O)N[C@H]2CCC[C@]3(CCN(c4cccc(F)c4)C3=O)C2)ccn1` (racemic) [Example 78, cis-N-[2-(3-Fluoro-phenyl)-1-oxo-2-aza-spiro[4.5]dec-7-yl]-2-methyl-isonicotinamide], the figure is 73 to 95%; as for `Cc1cccc(C(=O)N[C@H]2CCC[C@]3(CCN(c4ccnc(C)n4)C3=O)C2)c1` (racemic) [Example 84, cis-3-Methyl-N-[2-(2-methyl-pyrimidin-4-yl)-1-oxo-2-aza-spiro [4.5]dec-7-yl]-benzamide], 73 to 95%; as for `O=C(N[C@@H]1CC(F)(F)C[C@@]2(CCN(c3cccc(F)c3)C2=O)C1)c1ccccn1` (racemic) [Example 97, cis-Pyridine-2-carboxylic acid [9,9-difluoro-2-(3-fluoro-phenyl)-1-oxo-2-aza-spiro[4.5]dec-7-yl]-amide], 88 to 93%.
As for `Cc1cccc(C(=O)N[C@@H]2CC(F)(F)C[C@@]3(CCN(c4ccc(F)cn4)C3=O)C2)n1` (racemic) [Example 109, cis-6-Methyl-pyridine-2-carboxylic acid [9,9-difluoro-2-(5-fluoro-pyridin-2-yl)-1-oxo-2-aza-spiro[4.5]dec-7-yl]-amide], the figure is 47 to 93%; as for `O=C(N[C@@H]1CC(F)(F)C[C@@]2(CCN(c3cc(F)cc(F)c3)C2=O)C1)c1ccccn1` (racemic) [Example 110, cis-Pyridine-2-carboxylic acid [2-(3,5-difluoro-phenyl)-9,9-difluoro-1-oxo-2-aza-spiro[4.5]dec-7-yl]-amide], 47 to 93%; as for `Cc1nccc(N2CC[C@@]3(C[C@@H](NC(=O)c4cccc(F)c4)CC(F)(F)C3)C2=O)n1` (racemic) [Example 128, cis-N-[9,9-Difluoro-2-(2-methyl-pyrimidin-4-yl)-1-oxo-2-aza-spiro[4.5]dec-7-yl]-3-fluoro-benzamide], 47 to 93%.
As for `Cc1nccc(C(=O)N[C@@H]2CC(F)(F)C[C@@]3(CCN(c4cccc(F)c4)C3=O)C2)n1` (racemic) [Example 129, cis-2-Methyl-pyrimidine-4-carboxylic acid [9,9-difluoro-2-(3-fluoro-phenyl)-1-oxo-2-aza-spiro[4.5]dec-7-yl]-amide], the figure is 47 to 93%; as for `Cc1cncc(N2CC[C@]3(CCC[C@H](NC(=O)c4ccnc(C)n4)C3)C2=O)n1` (relative stereo) [Example 59, cis-2-Methyl-pyrimidine-4-carboxylic acid [2-(6-methyl-pyrazin-2-yl)-1-oxo-2-aza-spiro[4.5]dec-7-yl]-amide], 73 to 95%.
On to `Cc1nccc(C(=O)N[C@H]2CCC[C@]3(CCN(c4cccc(C#N)c4)C3=O)C2)n1` (relative stereo) [Example 60, cis-2-Methyl-pyrimidine-4-carboxylic acid [2-(3-cyano-phenyl)-1-oxo-2-aza-spiro [4.5]dec-7-yl]-amide], for which the Emax was in the range of 73 to 95%.
Turning to `Cc1nccc(C(=O)N[C@H]2CCC[C@]3(CCN(c4cccc(C(F)(F)F)n4)C3=O)C2)n1` (relative stereo) [Example 61, cis-2-Methyl-pyrimidine-4-carboxylic acid [1-oxo-2-(6-trifluoromethyl-pyridin-2-yl)-2-aza-spiro[4.5]dec-7-yl]-amide], the Emax fell in the range of 73 to 95%.
As for `Cc1cccc(C(=O)N[C@H]2CCC[C@]3(CCN(c4ccnc(C)n4)C3=O)C2)n1` (relative stereo) [Example 62, cis-6-methyl-pyridine-2-carboxylic acid [2-(2-methyl-pyrimidin-4-yl)-1-oxo-2-aza-spiro[4.5]dec-7-yl]-amide], the figure is 73 to 95%; as for `Cc1ccc(N2CC[C@]3(CCC[C@H](NC(=O)c4cccc(C)n4)C3)C2=O)cn1` (relative stereo) [Example 63, cis-6-Methyl-pyridine-2-carboxylic acid [2-(6-methyl-pyridin-3-yl)-1-oxo-2-aza-spiro[4.5]dec-7-yl]-amide], 73 to 95%; as for `Cc1cccc(C(=O)N[C@H]2CCC[C@]3(CCN(c4cncc(F)c4)C3=O)C2)n1` (relative stereo) [Example 64, cis-6-Methyl-pyridine-2-carboxylic acid [2-(5-fluoro-pyridin-3-yl)-1-oxo-2-aza-spiro[4.5]dec-7-yl]-amide], 73 to 95%.
As for `Cc1nccc(N2CC[C@]3(CCC[C@H](NC(=O)c4cccc(F)c4)C3)C2=O)n1` (relative stereo) [Example 65, cis-3-Fluoro-N-[2-(2-methyl-pyrimidin-4-yl)-1-oxo-2-aza-spiro[4.5]dec-7-yl]-benzamide], the Emax is 73 to 95%.
Then `Cc1cc(N2CC[C@]3(CCC[C@H](NC(=O)c4cccc(F)c4)C3)C2=O)ccn1` (relative stereo) [Example 66, cis-3-Fluoro-N-[2-(2-methyl-pyridin-4-yl)-1-oxo-2-aza-spiro[4.5]dec-7-yl]-benzamide], with 73 to 95%; and `O=C(N[C@H]1CCC[C@]2(CCN(c3cccc(F)c3)C2=O)C1)c1ccc(F)cn1` (relative stereo) [Example 68, cis-5-Fluoro-pyridine-2-carboxylic acid [2-(3-fluoro-phenyl)-1-oxo-2-aza-spiro [4.5]dec-7-yl]-amide], with 73 to 95%.
As for `Cc1nccc(C(=O)N[C@H]2CCC[C@]3(CCN(c4cccc(F)c4)C3=O)C2)n1` (relative stereo) [Example 69, cis-2-Methyl-pyrimidine-4-carboxylic acid [2-(3-fluoro-phenyl)-1-oxo-2-aza-spiro[4.5]dec-7-yl]-amide], the figure is 73 to 95%.
Then `O=C(N[C@H]1CCC[C@]2(CCN(c3cccc(F)c3)C2=O)C1)c1ccncn1` (relative stereo) [Example 70, cis-Pyrimidine-4-carboxylic acid [2-(3-fluoro-phenyl)-1-oxo-2-aza-spiro [4.5]dec-7-yl]-amide], with 73 to 95%; and `Cc1cncc(N2CC[C@]3(CCC[C@H](NC(=O)c4cccc(C)n4)C3)C2=O)c1` (relative stereo) [Example 71, cis-6-Methyl-pyridine-2-carboxylic acid [2-(5-methyl-pyridin-3-yl)-1-oxo-2-aza-spiro[4.5]dec-7-yl]-amide], with 73 to 95%; and `COc1cccc(N2CC[C@]3(CCC[C@H](NC(=O)c4cccc(C)n4)C3)C2=O)c1` (relative stereo) [Example 72, cis-6-Methyl-pyridine-2-carboxylic acid [2-(3-methoxy-phenyl)-1-oxo-2-aza-spiro[4.5]dec-7-yl]-amide], with 73 to 95%.
`O=C(N[C@H]1CCC[C@]2(CCN(c3cncc(F)c3)C2=O)C1)c1ccccn1` (relative stereo) [Example 74, cis-Pyridine-2-carboxylic acid [2-(5-fluoro-pyridin-3-yl)-1-oxo-2-aza-spiro[4.5]dec-7-yl]-amide]: the Emax was in the range of 73 to 95%.

These data come from patent publication US9359297B2, “Spirolactam derivatives and uses of same” (H. Lundbeck A/S, priority 2009, dated 2016).
